Like-named read-outs stand apart in the source and are kept apart here. One block for each compound: values may come before it.
Key:
[1] = target: human liver microsomes (HLM) (Homo sapiens, UniProt P08684)
Method: (§1) Considering that RLM or HLM microsome may have different metabolic rates, we conducted experiments on enzyme and incubation time before the start of the experiment. […] A rate-time graph was created to select the most suitable concentration and incubation time within the linear range of variation. […] The drug was dissolved in DMSO.
(§2) The relationship between reaction rate and substrate concentration based on the Michaelis-Menten equation was calculated, and the Km value through nonlinear fitting was determined. […] The relationship between inhibitor concentration and reaction rate was plotted after the reaction rate at different inhibitor concentrations was determined, and then the IC50 value through nonlinear regression analysis was calculated. […] The above mixture was incubated at 37°C for 5 min, after which NADPH was added to start the reaction process for 30 min, and it was finally cooled to −80°C to stop the reaction. 400 μL of acetonitrile and 20 μL of IS working solution (200 ng/mL) were incorporated into the mixture. Following vortexed and centrifugated at 13,000 rpm for 10 min, the supernatant was obtained for UPLC-MS/MS analysis.
(§3) Km, IC50, Lineweaver-Burk plots and mean plasma concentration-time curves were generated using GraphPad Prism 9.5 software. […] SPSS (version 26.0; SPSS Inc., Chicago, IL, United States) was used for data processing, and t-test was employed to determine whether there was a significant difference.

[2] = system: rat liver microsomes (RLM); experiment: Vandetanib metabolism (N-demethyl vandetanib formation) and its inhibition by luteolin in rat liver microsomes; details: RLM, Lineweaver-Burk plot
Method: as §1, §2, §3

[3] = system: vandetanib metabolism (N-demethyl vandetanib formation) in rat liver microsomes; experiment: as above; details: rat, rat liver microsomes, pH 7.4, probe vandetanib at its Km value in RLM
Method: as §1, §2, §3

[4] = target: vandetanib metabolism (N-demethyl vandetanib formation) in human liver microsomes (Homo sapiens, UniProt P08684); experiment: Vandetanib metabolism (N-demethyl vandetanib formation) and its inhibition by luteolin in human liver microsomes; details: pH 7.4
Chain of vandetanib metabolism (N-demethyl vandetanib formation) in human liver microsomes (P08684 2-503): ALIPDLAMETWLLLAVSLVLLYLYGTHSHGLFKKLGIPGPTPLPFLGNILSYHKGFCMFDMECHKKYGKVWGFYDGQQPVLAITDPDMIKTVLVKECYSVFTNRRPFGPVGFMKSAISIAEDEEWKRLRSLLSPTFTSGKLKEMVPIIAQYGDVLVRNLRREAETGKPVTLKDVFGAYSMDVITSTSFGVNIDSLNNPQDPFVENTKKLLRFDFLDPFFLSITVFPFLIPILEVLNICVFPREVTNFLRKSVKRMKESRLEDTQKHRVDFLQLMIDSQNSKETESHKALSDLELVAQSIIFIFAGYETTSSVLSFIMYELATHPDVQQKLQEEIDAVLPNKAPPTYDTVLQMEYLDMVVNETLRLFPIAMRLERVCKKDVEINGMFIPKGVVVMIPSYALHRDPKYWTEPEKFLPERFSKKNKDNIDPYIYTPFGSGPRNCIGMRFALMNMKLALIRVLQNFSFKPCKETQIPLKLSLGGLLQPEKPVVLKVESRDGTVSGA
Method: as §1, §2, §3

[5] = Pharmacokinetics of vandetanib and N-demethyl vandetanib in SD rats with or without luteolin (UPLC-MS/MS of plasma); assay type: in vivo, Sprague-Dawley (SD) rats; details: for AUC(0-t) / AUC(0-∞) / CLz/F / Cmax / Tmax / t1/2 / AUC(0-inf) / half-life / CL/F: plasma; for CL/F: read-out: CLz/F (converted)
Method: Male SD rats weighing 180–220 g were provided by the Laboratory Animal Center of the First Affiliated Hospital of Wenzhou Medical University (Zhejiang, China). They were housed under standard conditions with a temperature of 20°C–26°C, a relative humidity of 55% ± 15%, and a 12-h dark/light cycle. The rats had free access to water and no other drugs were given during the feeding period, and were prohibited from eating for 12 h before the experiment. The experimental procedures and protocols were in accordance with animal ethics standards and approved by the Institutional Animal Care and Use Committee of the First Affiliated Hospital of Wenzhou Medical University (Zhejiang, China).
Therefore, we adopted the same dosages to ensure the comparability and validity of the experimental results. 0.3 mL tail vein blood was collected at 0.5, 1, 1.5, 2, 3, 4, 6, 8, 12, 24, 48 and 80 h post-vandetanib administration. The blood samples were centrifuged at 4°C at 13,000 rpm for 10 min to obtain plasma, which was aspirated and stored at −80°C until analysis.

[6] = design: method as in Martin et al., 2011; details: ref Martin et al., 2011, cited from earlier work
in vitro = details: rat, pH 7.4
Method: as §1, §2, §3

[7] = design: method as in Indra et al., 2020; details: ref Indra et al., 2020; cited from earlier work
[8] = inhibition of vandetanib metabolism
[9] = luteolin 30 mg/kg by gavage 30 min before vandetanib 25 mg/kg by gavage
[10] = vandetanib 25 mg/kg by gavage alone (control group)
[11] = luteolin 30 mg/kg + vandetanib 25 mg/kg vs vandetanib alone
[12] = male, Sprague-Dawley, rat, po, 25 mg/kg, luteolin 30 mg/kg by gavage 30 min before vandetanib 25 mg/kg by gavage
[13] = male, Sprague-Dawley, rat, po, 25 mg/kg, vandetanib 25 mg/kg by gavage alone (control group)

Chain of human liver microsomes (HLM) (P08684 2-503): as above

Compound: O=c1cc(-c2ccc(O)c(O)c2)oc2cc(O)cc(O)c12 [Luteolin]
inhibition type [1]: mixture of non-competitive and un-competitive | α [1]: 0.28 µM | inhibition mechanism [2]: mixture of non-competitive inhibition and competitive inhibition | Ki [2, 8]: 2.33 µM | α [2, 8]: 6.68 µM | IC50 at 30 min [3]: 8.56 µM | IC50 at 30 min [4]: 15.8 µM

AUC(0-t) [5, 9]: 998.82 ± 276.65 ng·h/mL | AUC(0-∞) [5, 9]: 1,118.64 ± 320.66 μg/L*h | CLz/F [5, 9]: 397.2 ± 108 mL/min/kg | Cmax [5, 9]: 22.41 ± 5.84 ng/mL | Tmax [5, 9]: 11.20 ± 1.79 h | t1/2 [5, 9]: 24.33 ± 5.63 h | AUC(0-t) [5, 10]: 938.88 ± 144.07 ng·h/mL | AUC(0-∞) [5, 10]: 1,163.14 ± 157.34 μg/L*h | CLz/F [5, 10]: 363.8 ± 51.7 mL/min/kg | Cmax [5, 10]: 19.56 ± 3.03 ng/mL | Tmax [5, 10]: 14.40 ± 5.37 h | t1/2 [5, 10]: 34.04 ± 15.69 h
Compound: COc1cc2c(Nc3ccc(Br)cc3F)ncnc2cc1OCC1CCNCC1 [N-demethyl vandetanib]

increase of AUC(0-t) of vandetanib in luteolin group compared with the control group [5, 11]: 18.1% | increase of Cmax of vandetanib in luteolin group compared with the control group [5, 11]: 32.8% | AUC(0-inf) [5, 12]: 41100 ng·h/mL | half-life [5, 12]: 23 ± 4.02 h | AUC(0-t) ([5]; male, Sprague-Dawley, rat, po, 25 mg/kg, luteolin 30 mg/kg by gavage 30 min before vandetanib 25 mg/kg by gavage, read-out: AUC(0-t)): 37100 ng·h/mL | CL/F [5, 12]: 10.2 mL/min/kg | Cmax ([5]; male, Sprague-Dawley, rat, po, 25 mg/kg, luteolin 30 mg/kg by gavage 30 min before vandetanib 25 mg/kg by gavage, read-out: Cmax): 1140 ng/mL | Tmax ([5]; male, Sprague-Dawley, rat, po, 25 mg/kg, luteolin 30 mg/kg by gavage 30 min before vandetanib 25 mg/kg by gavage, read-out: Tmax): 7.6 ± 2.61 h | AUC(0-inf) [5, 13]: 36100 ng·h/mL | half-life [5, 13]: 26.6 ± 4.35 h | AUC(0-t) ([5]; male, Sprague-Dawley, rat, po, 25 mg/kg, vandetanib 25 mg/kg by gavage alone (control group), read-out: AUC(0-t)): 31400 ng·h/mL | CL/F [5, 13]: 11.7 mL/min/kg | Cmax ([5]; male, Sprague-Dawley, rat, po, 25 mg/kg, vandetanib 25 mg/kg by gavage alone (control group), read-out: Cmax): 859 ± 125 ng/mL | Tmax ([5]; male, Sprague-Dawley, rat, po, 25 mg/kg, vandetanib 25 mg/kg by gavage alone (control group), read-out: Tmax): 8.8 ± 3.03 h | Km at 30 min (in vitro): 9.41 µM
Compound: COc1cc2c(Nc3ccc(Br)cc3F)ncnc2cc1OCC1CCN(C)CC1 [Vandetanib]
levels of vandetanib exposure ([6]; combined with itraconazole, a potent CYP3A4 inhibitor): increased | AUC of vandetanib ([6]; combined with rifampicin, a strong inducer of CYP3A4): significantly decreased

Compound: COc1cc2c(Nc3ccc(Br)cc3F)ncnc2cc1OCC1CC[N+](C)([O-])CC1 (stereo not shown) [vandetanib N-oxide]
less activity compared to the original compound (vandetanib) [7]: over 50 times

From article PMC11911205 (Frontiers in Pharmacology, 2025)
